Assay results from ChEMBL document CHEMBL1201862, “PubChem BioAssay data set” (2004).
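The compound was tested at five concentrations on cells cultured in 96-well plates, with a 48-hour exposure period. At the GI50, growth is halved.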 The source made the active and inactive calls. Rule as the data show it: active = GI50 up to about 1.1 µM and inactive = higher.

Tests used:
Test in all cases: growth of human tumour cells (NCI), 48 h
UO-31 = system: UO-31
SNB-19 = system: SNB-19
OVCAR-4 = system: OVCAR-4
RPMI-8226 = system: RPMI-8226
EKVX = system: EKVX
M19-MEL = system: M19-MEL
KM12 = system: KM12
COLO 205 = system: COLO 205
A498 = system: A498
CCRF-CEM = system: CCRF-CEM
UACC-62 = system: UACC-62
DMS-114 = system: DMS-114
HCT-116 = system: HCT-116
SF-539 = system: SF-539
LXFL 529 = system: LXFL 529
CAKI-1 = system: CAKI-1
HCC 2998 = system: HCC 2998
NCI-H23 = system: NCI-H23
SK-MEL-28 = system: SK-MEL-28
SK-MEL-5 = system: SK-MEL-5
SN12C = system: SN12C
U-251 = system: U-251
M14 = system: M14
SK-MEL-2 = system: SK-MEL-2
SK-OV-3 = system: SK-OV-3
SNB-75 = system: SNB-75
DMS-273 = system: DMS-273
IGROV-1 = system: IGROV-1
UACC-257 = system: UACC-257
NCI-H460 = system: NCI-H460
HOP-18 = system: HOP-18
OVCAR-5 = system: OVCAR-5
HOP-62 = system: HOP-62
OVCAR-8 = system: OVCAR-8
A549 = system: A549
SR = system: SR
K562 = system: K562
Malme-3M = system: Malme-3M
HT-29 = system: HT-29
OVCAR-3 = system: OVCAR-3
MOLT-4 = system: MOLT-4
TK-10 = system: TK-10
SF-268 = system: SF-268
HOP-92 = system: HOP-92
SNB-78 = system: SNB-78
SW-620 = system: SW-620
786-0 = system: 786-0
HL-60 = system: HL-60
DLD-1 = system: DLD-1
NCI-H226 = system: NCI-H226
NCI-H522 = system: NCI-H522
HCT-15 = system: HCT-15
ACHN = system: ACHN
SF-295 = system: SF-295
RXF 393 = system: RXF 393
KM-20L2 = system: KM-20L2
LOX IMVI = system: LOX IMVI

c1ccc(C2=NOC3C4CCC(C4)C23)cc1 (configuration not stated)
GI50 (UO-31): > 100 µM (inactive)
GI50 (SNB-19): > 100 µM (inactive)
GI50 (OVCAR-4): > 100 µM (inactive)
GI50 (RPMI-8226): > 100 µM (inactive)
GI50 (EKVX): > 100 µM (inactive)
GI50 (M19-MEL): > 100 µM (inactive)
GI50 (KM12): > 100 µM (inactive)
GI50 (COLO 205): > 100 µM (inactive)
GI50 (A498): > 100 µM (inactive)
GI50 (CCRF-CEM): > 100 µM (inactive)
GI50 (UACC-62): > 100 µM (inactive)
GI50 (DMS-114): > 100 µM (inactive)
GI50 (HCT-116): > 100 µM (inactive)
GI50 (SF-539): > 100 µM (inactive)
GI50 (LXFL 529): > 100 µM (inactive)
GI50 (CAKI-1): < 0.01 µM (active)
GI50 (HCC 2998): > 100 µM (inactive)
GI50 (NCI-H23): > 100 µM (inactive)
GI50 (SK-MEL-28): > 100 µM (inactive)
GI50 (SK-MEL-5): > 100 µM (inactive)
GI50 (SN12C): > 100 µM (inactive)
GI50 (U-251): > 100 µM (inactive)
GI50 (M14): > 100 µM (inactive)
GI50 (SK-MEL-2): > 100 µM (inactive)
GI50 (SK-OV-3): > 100 µM (inactive)
GI50 (SNB-75): > 100 µM (inactive)
GI50 (DMS-273): > 100 µM (inactive)
GI50 (IGROV-1): > 100 µM (inactive)
GI50 (UACC-257): > 100 µM (inactive)
GI50 (NCI-H460): > 100 µM (inactive)
GI50 (HOP-18): > 100 µM (inactive)
GI50 (OVCAR-5): > 100 µM (inactive)
GI50 (HOP-62): > 100 µM (inactive)
GI50 (OVCAR-8): > 100 µM (inactive)
GI50 (A549): > 100 µM (inactive)
GI50 (SR): > 100 µM (inactive)
GI50 (K562): > 100 µM (inactive)
GI50 (Malme-3M): > 100 µM (inactive)
GI50 (HT-29): > 100 µM (inactive)
GI50 (OVCAR-3): > 100 µM (inactive)
GI50 (MOLT-4): > 100 µM (inactive)
GI50 (TK-10): > 100 µM (inactive)
GI50 (SF-268): > 100 µM (inactive)
GI50 (HOP-92): > 100 µM (inactive)
GI50 (SNB-78): > 100 µM (inactive)
GI50 (SW-620): > 100 µM (inactive)
GI50 (786-0): > 100 µM (inactive)
GI50 (HL-60): > 100 µM (inactive)
GI50 (DLD-1): > 100 µM (inactive)
GI50 (NCI-H226): > 100 µM (inactive)
GI50 (NCI-H522): > 100 µM (inactive)
GI50 (HCT-15): > 100 µM
GI50 (ACHN): > 100 µM (inactive)
GI50 (SF-295): > 100 µM (inactive)

C=C(C=O)CCCC(C)[C@@H]1CCC23CC12CCC1[C@@]2(C)CCC(OC(C)=O)C(C)(C)C2CC(OC2OC(COC(C)=O)C(O)C(O)C2O)[C@]13C (some centres not stated)
GI50 (UO-31): 5.42 µM (inactive)
GI50 (SNB-19): 7.1 µM (inactive)
GI50 (OVCAR-4): 5.14 µM (inactive)
GI50 (RPMI-8226): 0.859 µM (active)
GI50 (EKVX): 7.33 µM (inactive)
GI50 (KM12): 3.39 µM (inactive)
GI50 (RXF 393): 5.6 µM (inactive)
GI50 (COLO 205): 7.82 µM (inactive)
GI50 (A498): 6.85 µM (inactive)
GI50 (CCRF-CEM): 1.03 µM (active)
GI50 (UACC-62): 1.08 µM (active)
GI50 (HCT-116): 0.809 µM (active)
GI50 (SF-539): 5.7 µM (inactive)
GI50 (LXFL 529): 2.66 µM (inactive)
GI50 (CAKI-1): 5.25 µM (inactive)
GI50 (HCC 2998): 7.53 µM (inactive)
GI50 (NCI-H23): 7.82 µM (inactive)
GI50 (SK-MEL-28): 0.845 µM (active)
GI50 (SK-MEL-5): 5.58 µM (inactive)
GI50 (SN12C): 1.58 µM (inactive)
GI50 (U-251): 2.72 µM (inactive)
GI50 (M14): 1.47 µM (inactive)
GI50 (SK-MEL-2): 7.4 µM (inactive)
GI50 (SK-OV-3): 6.15 µM (inactive)
GI50 (SNB-75): 5.68 µM (inactive)
GI50 (DMS-273): 5.82 µM (inactive)
GI50 (IGROV-1): 2.15 µM (inactive)
GI50 (UACC-257): 5.7 µM (inactive)
GI50 (NCI-H460): 7.69 µM (inactive)
GI50 (HOP-18): 9.64 µM (inactive)
GI50 (KM-20L2): 6.5 µM (inactive)
GI50 (OVCAR-5): 5.98 µM (inactive)
GI50 (HOP-62): 7.87 µM (inactive)
GI50 (OVCAR-8): 4.38 µM (inactive)
GI50 (A549): 6.34 µM (inactive)
GI50 (K562): 1.44 µM (inactive)
GI50 (Malme-3M): 2 µM (inactive)
GI50 (HT-29): 5.43 µM (inactive)
GI50 (OVCAR-3): 2.72 µM (inactive)
GI50 (MOLT-4): 0.861 µM (active)
GI50 (TK-10): 6.58 µM (inactive)
GI50 (LOX IMVI): 0.807 µM (active)
GI50 (SF-268): 5.43 µM (inactive)
GI50 (HOP-92): 6.22 µM (inactive)
GI50 (SNB-78): 1.14 µM (inactive)
GI50 (SW-620): 0.798 µM (active)
GI50 (786-0): 6.87 µM (inactive)
GI50 (HL-60): 0.643 µM (active)
GI50 (NCI-H226): 6.43 µM (inactive)
GI50 (NCI-H522): 0.843 µM (active)
GI50 (HCT-15): 1.56 µM
GI50 (ACHN): 4.51 µM (inactive)
GI50 (SF-295): 5.83 µM (inactive)
